From paper PMC4476799, “Englerin A Agonizes the TRPC4/C5 Cation Channels to Inhibit Tumor Cell Line Proliferation” (PLoS ONE, 2015)
Where two headings read alike, the source gives them in different places.

System: cancer cell lines from the cancer cell line encyclopedia (CCLE)
Experiment: Cell line profiling (CLiP) proliferation experiment
Type: cell-based
Parameters: key to Compound Activity (1-inactive;2-active): 1-inactive; 2-active; ACTIVITY_AREA: scale not given here; AMAX: unit not given here
Conditions: for IC50: read-out: Crossing Point; for EC50: read-out: Inflection Point
Description: Compound profiling experiment and data analysis was performed as previously described. Data was imported and plotted using the Tibco Spotfire DXP application. Lines were categorized as sensitive, intermediate and refractory as follows: Amax<-40 & Inflection Point <2 ~ Sensitive, Amax>-20 & Inflection Point >10 ~ Refractory, all else were called Intermediate. Cancer Cell line HG-U133 Plus 2 data was processed and normalized as described. […] Five sets of refractory cell lines were generated from the pool of refractory cell lines trying to match the lineage composition of the set of sensitive cell lines. The limma package was used as previously described to perform the statistical comparison.

[1] = UM-UC-3 cell line, urinary_tract, transitional_cell_carcinoma
[2] = VM-CUB1 cell line, urinary_tract, transitional_cell_carcinoma
[3] = VMRC-RCW cell line, kidney, renal_cell_carcinoma
[4] = VMRC-RCZ cell line, kidney, renal_cell_carcinoma
[5] = WSU-DLCL2 cell line, haematopoietic_and_lymphoid_tissue, diffuse_large_B_cell_lymphoma
[6] = YKG1 cell line, central_nervous_system, astrocytoma_Grade_IV
[7] = Z-138 cell line, haematopoietic_and_lymphoid_tissue, mantle_cell_lymphoma
[8] = ZR-75-1 cell line, breast, ductal_carcinoma
[9] = cell line 8-MG-BA, central_nervous_system, astrocytoma_Grade_IV
[10] = cell line 697, haematopoietic_and_lymphoid_tissue, acute_lymphoblastic_leukaemia
[11] = cell line 769-P, kidney, clear_cell_renal_cell_carcinoma
[12] = cell line 786-O, kidney, clear_cell_renal_cell_carcinoma
[13] = cell line 8305C, thyroid, anaplastic_carcinoma
[14] = cell line 23132/87, stomach, adenocarcinoma
[15] = cell line A4/Fuk, haematopoietic_and_lymphoid_tissue, diffuse_large_B_cell_lymphoma
[16] = cell line A-204, soft_tissue, NS
[17] = cell line BDCM, haematopoietic_and_lymphoid_tissue, acute_lymphoblastic_B_cell_leukaemia
[18] = cell line BHY, upper_aerodigestive_tract, squamous_cell_carcinoma
[19] = cell line BICR 6, upper_aerodigestive_tract, squamous_cell_carcinoma
[20] = cell line BICR 22, upper_aerodigestive_tract, squamous_cell_carcinoma
[21] = cell line CAL-29, urinary_tract, transitional_cell_carcinoma
[22] = cell line DOHH-2, haematopoietic_and_lymphoid_tissue
[23] = cell line EB1, haematopoietic_and_lymphoid_tissue
[24] = cell line EB2, haematopoietic_and_lymphoid_tissue
[25] = cell line EM-2 (haematopoietic_and_lymphoid_tissue, blast_phase_chronic_myeloid_leukaemia)
[26] = cell line EM-2, haematopoietic_and_lymphoid_tissue
[27] = cell line EOL-1, haematopoietic_and_lymphoid_tissue
[28] = cell line FaDu, upper_aerodigestive_tract

CC(C)[C@@]12C[C@@H](O)[C@@](C)(O1)[C@@H]1CC[C@@H](C)[C@H]1[C@@H]2OC(=O)/C=C/c1ccccc1 [Englerin B]
ACTIVITY_AREA [1]: 37.41
AMAX [1]: -54.71
RESPONSE [1]: INTERMEDIATE
ACTIVITY_AREA [2]: 96.55
AMAX [2]: -58.31
RESPONSE [2]: INTERMEDIATE
IC50 (VMRC-RCW (kidney)): > 30 µM
ACTIVITY_AREA [3]: 10.22
AMAX [3]: -25.65
IC50 [3]: > 30 µM
IC50 (VMRC-RCZ (kidney)): > 30 µM
ACTIVITY_AREA [4]: 26.25
AMAX [4]: -46.92
RESPONSE [4]: INTERMEDIATE
IC50 [4]: > 30 µM
IC50 (WM983B, WM-983B (skin)): > 30 µM
IC50 (WM983B, WM-983B cell line, skin, NS): > 30 µM
ACTIVITY_AREA (WM1799 cell line, skin, NS): 44.8
AMAX (WM1799 cell line, skin, NS): -38.05
RESPONSE (WM1799 cell line, skin, NS): INTERMEDIATE
IC50 (WM-88 (skin)): > 30 µM
ACTIVITY_AREA (WM-88 cell line, skin, NS): 55.16
AMAX (WM-88 cell line, skin, NS): -34.98
RESPONSE (WM-88 cell line, skin, NS): INTERMEDIATE
IC50 (WM-88 cell line, skin, NS): > 30 µM
ACTIVITY_AREA (WM-115 cell line, skin, NS): 73.29
AMAX (WM-115 cell line, skin, NS): -15.29
RESPONSE (WM-115 cell line, skin, NS): REFRACTORY
ACTIVITY_AREA (WM-266-4 cell line, skin, NS): 31.57
AMAX (WM-266-4 cell line, skin, NS): -38.36
RESPONSE (WM-266-4 cell line, skin, NS): INTERMEDIATE
ACTIVITY_AREA (WM-793 cell line, skin, NS): 26.94
AMAX (WM-793 cell line, skin, NS): -46.79
RESPONSE (WM-793 cell line, skin, NS): INTERMEDIATE
ACTIVITY_AREA (WM-983B cell line, skin, NS): 63.66
AMAX (WM-983B cell line, skin, NS): -43.12
RESPONSE (WM-983B cell line, skin, NS): INTERMEDIATE
IC50 (WM-1799, WM1799 (skin)): > 30 µM
IC50 (WM-1799, WM1799 cell line, skin, NS): > 30 µM
IC50 (WS1 (skin)): > 30 µM
IC50 (WS1, WS1 cell line, skin): > 30 µM
ACTIVITY_AREA (WS1 cell line, skin): 21.77
AMAX (WS1 cell line, skin): -26.6
RESPONSE (WS1 cell line, skin): INTERMEDIATE
ACTIVITY_AREA [5]: 47.3
AMAX [5]: -92.11
RESPONSE [5]: INTERMEDIATE
ACTIVITY_AREA (YAPC cell line, pancreas, NS): 25.5
AMAX (YAPC cell line, pancreas, NS): -44.67
RESPONSE (YAPC cell line, pancreas, NS): INTERMEDIATE
ACTIVITY_AREA [6]: 26.45
AMAX [6]: -20.02
RESPONSE [6]: INTERMEDIATE
ACTIVITY_AREA (YMB-1 cell line, breast, NS): 29.44
AMAX (YMB-1 cell line, breast, NS): -63.02
RESPONSE (YMB-1 cell line, breast, NS): INTERMEDIATE
IC50 (YMB-1 cell line, breast, NS): 21 µM
EC50 (YMB-1 cell line, breast, NS): 21 µM
ACTIVITY_AREA [7]: 90.79
AMAX [7]: -65.74
RESPONSE [7]: INTERMEDIATE
ACTIVITY_AREA [8]: 42.06
AMAX [8]: -53.16
Compound Activity (1-inactive;2-active) (call per compound): 1
Compound Activity (1-inactive;2-active) (call per compound, repeated on every line): 1
Compound Activity (1-inactive;2-active) (call printed on every cell-line row): 1
ACTIVITY_AREA [9]: 36.6
AMAX [9]: -52.73
RESPONSE [9]: INTERMEDIATE
ACTIVITY_AREA (cell line 59M, ovary, NS): 26.55
AMAX (cell line 59M, ovary, NS): -38.54
RESPONSE (cell line 59M, ovary, NS): INTERMEDIATE
IC50 (cell line 59M, ovary, NS): > 30 µM
IC50 (cell line 59M): > 30 µM
IC50 [10]: 18.6 µM
EC50 [10]: 18.6 µM
ACTIVITY_AREA [11]: 13.6
AMAX [11]: -49.16
RESPONSE [11]: INTERMEDIATE
ACTIVITY_AREA [12]: 46.1
AMAX [12]: -38.05
RESPONSE [12]: INTERMEDIATE
Compound Activity (1-inactive;2-active) (cell line 1321N1 (central_nervous_system, astrocytoma)): 1
ACTIVITY_AREA [13]: 19.13
AMAX [13]: -42.05
RESPONSE [13]: INTERMEDIATE
ACTIVITY_AREA [14]: 152.84
AMAX [14]: -72.44
RESPONSE [14]: INTERMEDIATE
IC50 [14]: 15.3 µM
EC50 [14]: 15.3 µM
IC50 [15]: 18.1 µM
EC50 [15]: 18.1 µM
ACTIVITY_AREA [16]: 22.22
AMAX [16]: -45.81
RESPONSE [16]: INTERMEDIATE
IC50 (cell line AGS, stomach, adenocarcinoma): 5.71 µM
IC50 [17]: 16.9 µM
EC50 [17]: 16.9 µM
IC50 [18]: 23.5 µM
EC50 [18]: 9.33 µM
IC50 [19]: 23 µM
EC50 [19]: 23 µM
IC50 (cell line BICR 16, upper_aerodigestive_tract, squamous_cell_carcinoma): 9.26 µM
IC50 [20]: 18.8 µM
EC50 [20]: 15 µM
IC50 (cell line C32, skin, NS): > 30 µM
IC50 [21]: 15.9 µM
EC50 [21]: 13.1 µM
Compound Activity (1-inactive;2-active) (cell line COLO-800 (skin, NS)): 1
Compound Activity (1-inactive;2-active) (cell line COV504 (ovary, NS)): 1
Compound Activity (1-inactive;2-active) (cell line Caov-3 (ovary, adenocarcinoma)): 1
Compound Activity (1-inactive;2-active) (cell line DBTRG-05MG (central_nervous_system, astrocytoma_Grade_IV)): 1
Compound Activity (1-inactive;2-active) (cell line DLD-1 (large_intestine, adenocarcinoma)): 1
ACTIVITY_AREA (cell line DMS 79, lung): 49.26
AMAX (cell line DMS 79, lung): -10.4
RESPONSE (cell line DMS 79, lung): REFRACTORY
ACTIVITY_AREA [22]: 33.67
AMAX [22]: -98.82
RESPONSE [22]: INTERMEDIATE
Compound Activity (1-inactive;2-active) (cell line DU 145 (prostate, NS)): 1
ACTIVITY_AREA (cell line DU 145, prostate): 176.13
AMAX (cell line DU 145, prostate): -54.93
RESPONSE (cell line DU 145, prostate): INTERMEDIATE
Compound Activity (1-inactive;2-active) (cell line DV-90 (lung, adenocarcinoma)): 1
ACTIVITY_AREA (cell line DV-90, lung): 23.59
AMAX (cell line DV-90, lung): -71.93
RESPONSE (cell line DV-90, lung): INTERMEDIATE
ACTIVITY_AREA [23]: 13.39
AMAX [23]: -56.14
RESPONSE [23]: INTERMEDIATE
IC50 [23]: 28.7 µM
ACTIVITY_AREA [24]: 28.45
AMAX [24]: -57.08
RESPONSE [24]: INTERMEDIATE
IC50 [24]: 25.8 µM
ACTIVITY_AREA (cell line EBC-1, lung): 56.14
AMAX (cell line EBC-1, lung): -53.25
RESPONSE (cell line EBC-1, lung): INTERMEDIATE
Compound Activity (1-inactive;2-active) (cell line EFM-19 (breast, ductal_carcinoma)): 1
ACTIVITY_AREA (cell line EFM-19, breast): 28.98
AMAX (cell line EFM-19, breast): -31.96
RESPONSE (cell line EFM-19, breast): INTERMEDIATE
ACTIVITY_AREA (cell line EFM-192A, breast): 78.14
AMAX (cell line EFM-192A, breast): -57.28
RESPONSE (cell line EFM-192A, breast): INTERMEDIATE
Compound Activity (1-inactive;2-active) [25]: 1
IC50 [25]: > 30 µM
ACTIVITY_AREA [26]: 14.33
AMAX [26]: -44.27
RESPONSE [26]: INTERMEDIATE
IC50 [26]: > 30 µM
ACTIVITY_AREA (cell line EN, endometrium): 5.5
AMAX (cell line EN, endometrium): -23.22
RESPONSE (cell line EN, endometrium): INTERMEDIATE
IC50 (cell line EN, endometrium): > 30 µM
IC50 (cell line EN): > 30 µM
ACTIVITY_AREA [27]: 60.59
AMAX [27]: -94.78
RESPONSE [27]: INTERMEDIATE
ACTIVITY_AREA (cell line ES-2, ovary): 44.96
AMAX (cell line ES-2, ovary): -44.71
RESPONSE (cell line ES-2, ovary): INTERMEDIATE
IC50 (cell line ES-2, ovary): > 30 µM
IC50 (cell line ES-2): > 30 µM
ACTIVITY_AREA (cell line ESS-1, endometrium): 41.09
AMAX (cell line ESS-1, endometrium): -72.67
RESPONSE (cell line ESS-1, endometrium): INTERMEDIATE
ACTIVITY_AREA (cell line FU-OV-1, ovary): 158.99
AMAX (cell line FU-OV-1, ovary): -69.93
RESPONSE (cell line FU-OV-1, ovary): INTERMEDIATE
IC50 (cell line FU-OV-1, ovary): 3.19 µM
ACTIVITY_AREA [28]: 21.14
AMAX [28]: -61.31
RESPONSE [28]: INTERMEDIATE
ACTIVITY_AREA (cell line G-361, skin): 55.99
AMAX (cell line G-361, skin): -32.98
RESPONSE (cell line G-361, skin): INTERMEDIATE
ACTIVITY_AREA (cell line G-401, soft_tissue): 47.08
AMAX (cell line G-401, soft_tissue): -74.97
RESPONSE (cell line G-401, soft_tissue): INTERMEDIATE
ACTIVITY_AREA (cell line G-402, soft_tissue): 90.01
AMAX (cell line G-402, soft_tissue): -70.25
RESPONSE (cell line G-402, soft_tissue): INTERMEDIATE
